From the supplement of paper PMC8612539
Values after ≈ are worked out from the molar mass of the structure shown.

Tested on: Escherichia coli
Assay: minimum inhibitory concentration (MIC)
Protocol: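 Broth microdilution MIC (Sensititre BOPO7F bovine plate, CLSI methods) of 19 antimicrobials against field isolates of P. multocida, M. haemolytica, H. somni (deep nasopharyngeal swabs) and E. coli, Enterococcus spp. (rectal swabs) from weaned dairy heifers. Incubation 16-24 h at 35 C. MIC is the lowest concentration preventing visible growth. Values with <= or > lie at the tested range limits. Trimethoprim-sulfamethoxazole is given as the trimethoprim component of a 1:19 mixture.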

CCCNC[C@]1(O)[C@H](C)O[C@@H](O[C@H]2[C@H](C)[C@@H](O[C@@H]3O[C@H](C)C[C@H](N(C)C)[C@H]3O)[C@](C)(O)C[C@@H](C)CN[C@H](C)[C@@H](O)[C@](C)(O)[C@@H](CC)OC(=O)[C@@H]2C)C[C@@]1(C)OC [Tulathromycin]
Settings | minimum inhibitory concentration [µg/mL]
isolate (source animal id): 8 | ≤ 8
isolate (source animal id): 9 | 16 (≈ 19.8 µM)
isolate (source animal id): 10 | 16 (≈ 19.8 µM)
isolate (source animal id): 11 | ≤ 8
isolate (source animal id): 12 | ≤ 8
isolate (source animal id): 13 | ≤ 8
isolate (source animal id): 14 | ≤ 8
isolate (source animal id): 15 | ≤ 8
isolate (source animal id): 16 | ≤ 8
isolate (source animal id): 98 | ≤ 8
isolate (source animal id): 99 | ≤ 8
isolate (source animal id): 100 | ≤ 8
isolate (source animal id): 101 | ≤ 8
isolate (source animal id): 102 | ≤ 8
isolate (source animal id): 103 | ≤ 8
isolate (source animal id): 104 | 16 (≈ 19.8 µM)
isolate (source animal id): 105 | ≤ 8
isolate (source animal id): 106 | 16 (≈ 19.8 µM)
isolate (source animal id): 107 | 16 (≈ 19.8 µM)
isolate (source animal id): 108 | 16 (≈ 19.8 µM)
isolate (source animal id): 109 | ≤ 8
isolate (source animal id): 110 | ≤ 8
isolate (source animal id): 111 | ≤ 8
isolate (source animal id): 112 | ≤ 8
isolate (source animal id): 113 | ≤ 8
isolate (source animal id): 114 | ≤ 8
isolate (source animal id): 115 | 64 (≈ 79.4 µM)
isolate (source animal id): 116 | ≤ 8
isolate (source animal id): 117 | 16 (≈ 19.8 µM)
isolate (source animal id): 118 | ≤ 8
isolate (source animal id): 119 | 32 (≈ 39.7 µM)
isolate (source animal id): 120 | ≤ 8
isolate (source animal id): 121 | ≤ 8
isolate (source animal id): 122 | ≤ 8
isolate (source animal id): 123 | ≤ 8
isolate (source animal id): 124 | 16 (≈ 19.8 µM)
isolate (source animal id): 125 | ≤ 8
isolate (source animal id): 126 | 16 (≈ 19.8 µM)
isolate (source animal id): 127 | 16 (≈ 19.8 µM)
isolate (source animal id): 128 | ≤ 8
isolate (source animal id): 129 | ≤ 8
isolate (source animal id): 130 | ≤ 8
isolate (source animal id): 131 | ≤ 8
isolate (source animal id): 132 | ≤ 8
isolate (source animal id): 133 | ≤ 8
isolate (source animal id): 134 | ≤ 8
isolate (source animal id): 135 | ≤ 8
isolate (source animal id): 136 | ≤ 8
isolate (source animal id): 137 | ≤ 8
isolate (source animal id): 138 | 32 (≈ 39.7 µM)
